Columns and labels:
[1] = tested on: Mycobacterium tuberculosis Erdman (autoluminescent); experiment: AUC25, normalised area under dose response up to IC25 (fraction (0-1)); higher = more potent at low dose
Procedure: (§1)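 DiaMOND dose responses (10 doses, 1.5- or 2-fold spacing, equipotent around IC90) of autoluminescent M. tuberculosis Erdman in 8 in vitro models. Read-out is OD600, or luminescence for the intracellular (J774) and dormancy models, background-subtracted and normalised to untreated wells. A 3-parameter Hill fit gives Einf and AUC25 (area to IC25 normalised by IC25); GRinf comes from a Hill fit of the Hafner normalised growth rate. Biological replicates passing QC are averaged. Single drugs only.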

[2] = tested on: Mycobacterium tuberculosis Erdman (autoluminescent); experiment: GRinf, maximum normalised growth rate inhibition (unitless (-1 to 1)); higher = less effect (negative = killing)
Procedure: as §1

[3] = tested on: Mycobacterium tuberculosis Erdman (autoluminescent); experiment: Einf, fitted maximum growth inhibition (fraction); higher = stronger maximal inhibition
Procedure: as §1

[4] = tested on: Mycobacterium tuberculosis Erdman (autoluminescent); experiment: Einf, fitted maximum growth inhibition of combination (fraction); higher = stronger maximal inhibition
Procedure: (§2)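 DiaMOND equipotent two-drug combination dose responses against autoluminescent M. tuberculosis Erdman in 8 in vitro models. Read-out is OD600, or luminescence for the intracellular and dormancy models, normalised to untreated wells. Hill-fit Einf, AUC25 and GRinf are potency metrics; FIC50 and FIC90 are Loewe-additivity fractional inhibitory concentrations, given as log2 (negative = synergy). Replicates are averaged.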

[5] = tested on: Mycobacterium tuberculosis Erdman (autoluminescent); experiment: FIC50 (Loewe) at 50% inhibition (log2); higher = more antagonistic
Procedure: as §2

[6] = tested on: Mycobacterium tuberculosis Erdman (autoluminescent); experiment: AUC25, normalised area under dose response up to IC25 (fraction (0-1)); higher = more potent at low dose; remark: listed apart in the source
Procedure: as §2

[7] = tested on: Mycobacterium tuberculosis Erdman (autoluminescent); experiment: GRinf, maximum normalised growth rate inhibition (unitless (-1 to 1)); higher = less effect (negative = killing); remark: listed apart in the source
Procedure: as §2

[8] = tested on: Mycobacterium tuberculosis Erdman (autoluminescent); experiment: FIC90 (Loewe) at 90% inhibition (log2); higher = more antagonistic
Procedure: as §2

[9] = in vitro model: acidic pH 5.7, time point: constant (~7 days, model-specific)
[10] = in vitro model: acidic pH 5.7, time point: terminal (~4-5 doublings, model-specific)
[11] = in vitro model: butyrate, time point: constant (~7 days, model-specific)
[12] = in vitro model: butyrate, time point: terminal (~4-5 doublings, model-specific)
[13] = in vitro model: cholesterol 0.05 mM, time point: constant (~7 days, model-specific)
[14] = in vitro model: cholesterol 0.05 mM, time point: terminal (~4-5 doublings, model-specific)
[15] = in vitro model: cholesterol-high 0.2 mM, time point: constant (~7 days, model-specific)
[16] = in vitro model: cholesterol-high 0.2 mM, time point: terminal (~4-5 doublings, model-specific)
[17] = in vitro model: dormancy (butyrate + nitrate, low O2), time point: constant (~7 days, model-specific)
[18] = in vitro model: dormancy (butyrate + nitrate, low O2), time point: terminal (~4-5 doublings, model-specific)
[19] = in vitro model: standard 7H9 glycerol, time point: constant = terminal
[20] = in vitro model: valerate, time point: constant (~7 days, model-specific)
[21] = in vitro model: valerate, time point: terminal (~4-5 doublings, model-specific)
[22] = in vitro model: intracellular J774, time point: constant = terminal

O=[N+]([O-])c1cn2c(n1)OC[C@@H](OCc1ccc(OC(F)(F)F)cc1)C2 [pretomanid]
AUC25 [1, 9]: 0.109
AUC25 [1, 10]: 0.0605
AUC25 [1, 11]: 0.0902
AUC25 [1, 12]: 0.0573
AUC25 [1, 13]: 0.122
AUC25 [1, 14]: 0.0841
AUC25 [1, 15]: 0.0644
AUC25 [1, 16]: 0.044
AUC25 [1, 17]: 0.0707
AUC25 [1, 18]: 0.0458
AUC25 [1, 19]: 0.0636
AUC25 [1, 20]: 0.136
AUC25 [1, 21]: 0.0896
GRinf [2, 9]: -0.472
GRinf [2, 10]: -0.294
GRinf [2, 11]: -0.111
GRinf [2, 12]: -0.114
GRinf [2, 13]: -0.205
GRinf [2, 14]: -0.0295
GRinf [2, 15]: -0.269
GRinf [2, 16]: -0.393
GRinf [2, 17]: 0.272
GRinf [2, 18]: -0.0972
GRinf [2, 22]: -0.539
GRinf [2, 19]: -0.0451
GRinf [2, 20]: -0.0946
GRinf [2, 21]: -0.00421
Einf [3, 9]: 0.891
Einf [3, 10]: 0.983
Einf [3, 11]: 0.949
Einf [3, 12]: 0.98
Einf [3, 13]: 0.741
Einf [3, 14]: 0.927
Einf [3, 15]: 0.888
Einf [3, 16]: 0.943
Einf [3, 17]: 0.914
Einf [3, 18]: 0.994
Einf [3, 22]: 1
Einf [3, 19]: 0.939
Einf [3, 20]: 0.948
Einf [3, 21]: 0.96

NC(=O)c1cnccn1 [pyrazinamide]
AUC25 [1, 9]: 0.12
AUC25 [1, 10]: 0.124
AUC25 [1, 11]: 0.135
AUC25 [1, 12]: 0.098
AUC25 [1, 13]: 0.154
AUC25 [1, 14]: 0.142
AUC25 [1, 15]: 0.0952
AUC25 [1, 16]: 0.0753
AUC25 [1, 17]: 0.0813
AUC25 [1, 19]: 0.104
AUC25 [1, 20]: 0.0917
AUC25 [1, 21]: 0.0645
GRinf [2, 9]: -0.0384
GRinf [2, 10]: 0.0463
GRinf [2, 11]: -1
GRinf [2, 12]: -1
GRinf [2, 13]: 0.111
GRinf [2, 14]: 0.0744
GRinf [2, 15]: -0.0736
GRinf [2, 16]: -0.64
GRinf [2, 17]: -0.934
GRinf [2, 22]: -0.393
GRinf [2, 19]: 0.582
GRinf [2, 20]: -0.597
GRinf [2, 21]: -0.749
Einf [3, 9]: 0.74
Einf [3, 10]: 0.881
Einf [3, 11]: 0.921
Einf [3, 12]: 0.954
Einf [3, 13]: 0.394
Einf [3, 14]: 0.803
Einf [3, 15]: 0.765
Einf [3, 16]: 0.959
Einf [3, 17]: 0.939
Einf [3, 22]: 0.977
Einf [3, 19]: 0.291
Einf [3, 20]: 0.8
Einf [3, 21]: 0.916

NC(=O)c1cnccn1 [pyrazinamide] + CO[C@H]1/C=C/O[C@@]2(C)Oc3c(C)c(O)c4c(O)c(c(/C=N/N5CCN(C)CC5)c(O)c4c3C2=O)NC(=O)/C(C)=C\C=C\[C@H](C)[C@H](O)[C@@H](C)[C@@H](O)[C@@H](C)[C@H](OC(C)=O)[C@@H]1C [rifampicin]
Einf [4, 9]: 0.932
Einf [4, 10]: 0.992
Einf [4, 11]: 0.839
Einf [4, 12]: 0.915
Einf [4, 13]: 0.607
Einf [4, 14]: 0.887
Einf [4, 15]: 0.91
Einf [4, 16]: 1
Einf [4, 17]: 0.9
Einf [4, 18]: 0.983
Einf [4, 22]: 0.989
Einf [4, 19]: 0.896
Einf [4, 20]: 0.761
Einf [4, 21]: 0.903
FIC50 [5, 9]: -0.484
FIC50 [5, 10]: -0.21
FIC50 [5, 11]: 0.347
FIC50 [5, 12]: 0.398
FIC50 [5, 14]: 0.59
FIC50 [5, 15]: 1.2
FIC50 [5, 16]: 1.54
FIC50 [5, 17]: -0.268
FIC50 [5, 18]: -0.19
FIC50 [5, 19]: -0.199
FIC50 [5, 20]: 0.449
FIC50 [5, 21]: 0.477
AUC25 [6, 9]: 0.0773
AUC25 [6, 10]: 0.0598
AUC25 [6, 11]: 0.121
AUC25 [6, 12]: 0.118
AUC25 [6, 13]: 0.128
AUC25 [6, 14]: 0.101
AUC25 [6, 15]: 0.0909
AUC25 [6, 16]: 0.095
AUC25 [6, 17]: 0.105
AUC25 [6, 18]: 0.0706
AUC25 [6, 19]: 0.0562
AUC25 [6, 20]: 0.054
AUC25 [6, 21]: 0.0277
GRinf [7, 9]: -0.451
GRinf [7, 10]: -0.278
GRinf [7, 11]: 0.188
GRinf [7, 12]: 0.216
GRinf [7, 13]: 0.0467
GRinf [7, 14]: -0.0969
GRinf [7, 15]: -0.177
GRinf [7, 16]: -0.819
GRinf [7, 17]: 0.249
GRinf [7, 18]: -0.179
GRinf [7, 22]: -0.472
GRinf [7, 19]: 0.144
GRinf [7, 20]: 0.201
GRinf [7, 21]: 0.149
FIC90 [8, 10]: -1.3
FIC90 [8, 12]: 2.41
FIC90 [8, 16]: 1.5
FIC90 [8, 17]: 0.25
FIC90 [8, 18]: 0.408
FIC90 [8, 22]: -0.135
FIC90 [8, 21]: 0.361
